Reference: US9394285B2 (Pfizer Inc., priority 2013, dated 2016)

Target: human AMPK (full-length γ1, β1 and α1 subunits) (Homo sapiens (Human), UniProt Q13131+Q9Y478)
Assay: AMPK in vitro biochemical assay (33P-based, SAMS peptide, PP2A dephosphorylation)
Conditions: for EC50: activation of phosphorylated AMPK, 33P-ATP, SAMS peptide, PP2A treatment, 4-parameter fit; for Emax / Maximum: counts as % of positive control wells (enzyme, allosteric activator or AMP, PP2A and substrate); for Emax: read-out: Maximum
Description: We designed a tricistronic AMPK expression construct that included open reading frames encoding the full-length γ1, β1 and α1 subunits of human AMPK with a ribosome-binding site (RBS) ahead of each coding region and subcloned this into pET-14b expression vector (Novagen, Madison, Wis.) using standard molecular biology techniques. AMPK tricistronic construct was transformed into E. coli BL21-CodonPlus™ (DE3)-RIPL strain (Stratagene) and transformants were selected on LB (Luria-Bertani) agar plates containing ampicillin (100 μg/ml). […] Optical density sample measurements were made on an UltroSpec 2000 spectrophotometer (Pharmacia Biotech) at 600 nm. When the cell density reached ˜0.9 OD, the temperature was reduced to 18° C. and the culture was induced at 18° C. with 0.1 mM Isopropylthiogalactoside (IPTG). […] The cell pellets were aliquoted into four portions, flash frozen in liquid nitrogen and were stored at −80° C. until purification. For purification, frozen cell paste was thawed and resuspended in 50 ml lysis buffer (50 mM Tris, pH 8.0, 150 mM NaCl, 10% glycerol, 2 mM Tris-2-carboxyethyl phosphine (TCEP), 20 mM imidazole and 0.001% Triton X-100). After sonication, insoluble material was removed by centrifugation at 15,000 rpm in a Sorvall® RC5 plus centrifuge for 30 min at 4° C. and the supernatant was loaded onto a 5 ml HisTrap™ HP column (GE Healthcare, Piscataway, N.J.) and washed with five column volumes of lysis buffer. Bound proteins were eluted using an elution buffer containing 300 mM imidazole. Fractions containing AMPK subunits were pooled based on SDS-10% PAGE analysis and dialyzed overnight in dialysis buffer (50 mM Tris, pH 8.0, 150 mM NaCl, 10% glycerol, 2 mM TCEP, and 0.001% Triton X-100). […] The phosphorylated AMPK complex was re-purified on HisTrap™ HP column as before, dialyzed over night in dialysis buffer. The phosphorylated AMPK complex was further purified by gel filtration chromatography with a Superdex 200 HiLoad 16/60 column (GE Healthcare) in SEC buffer (50 mM Tris, pH 8.0, 150 mM NaCl, 10% glycerol, 2 mM TCEP, and 0.001% Triton X-100).
The harvest time (72 hours post infection) was indicated by percent cell viability (to 85-90%) and increased cell diameter (3-4 μm). […] For purification, the cell paste was resuspended in 500 mL lysis buffer (50 mM Tris pH 8.0, 150 mM NaCl, 25 mM imidazole, 10% glycerol, 2 mM MgCl2, 2 mM TCEP+protease inhibitor cocktail. After lysis, cellular debris was removed by centrifugation at 36K×g for 1 hour. The resulting supernatant was filtered at 0.2 micron before applying to a 1 mL nickel charged IMAC column (HisTrap, GE). The bound resin was washed to baseline with 50 CV of 50 mM Tris pH 8.0, 150 mM NaCl, 25 mM imidazole, 10% glycerol, 2 mM MgCl2, 2 mM TCEP before eluting over a 20 CV gradient to 100% with wash buffer containing 500 mM imidazole. Pooled fractions containing PP2A were combined and diluted 10× with 50 mM Tris pH 8.0, 10% glycerol, 1 mM TCEP and applied to a 1 mL AIEX resin (HiTrap QFF, GE). The bound resin was washed with dilution buffer and PP2A was eluted over a 20 CV gradient to 100% 50 mM Tris pH 8.0, 500 mM NaCl, 10% glycerol, 1 mM TCEP and was further diluted 1:1 with 50 mM Tris pH 8.0, 150 mM NaCl, 10% glycerol, and 1 mM TCEP buffer.
The biochemical EC50 (half-maximal concentration required for full activation) of compounds for the activation of AMPK was evaluated by ^33P-based assay using SAMS peptide (commercially available) derived from ACC-1. Twenty μl of phosphorylated AMPK diluted in assay buffer, (50 mM HEPES, 1 mM EGTA, 10 mM MgCl2, 0.25 mM DTT, 0.01% Tween-20, 0.01% BSA (pH 7.5)) was added to 384 well plates containing 1 μL of test compound. Following a fifteen minute room temperature incubation, 10 μL of protein phosphatase PP2A was added to the plate to dephosphorylate pThr172 of AMPK. […] The reaction was terminated after 60 minutes incubation at room temperature by the addition of 15 μL of 2% H3PO4.

Chain of human AMPK (full-length γ1, β1 and α1 subunits) (Q13131 whole entry): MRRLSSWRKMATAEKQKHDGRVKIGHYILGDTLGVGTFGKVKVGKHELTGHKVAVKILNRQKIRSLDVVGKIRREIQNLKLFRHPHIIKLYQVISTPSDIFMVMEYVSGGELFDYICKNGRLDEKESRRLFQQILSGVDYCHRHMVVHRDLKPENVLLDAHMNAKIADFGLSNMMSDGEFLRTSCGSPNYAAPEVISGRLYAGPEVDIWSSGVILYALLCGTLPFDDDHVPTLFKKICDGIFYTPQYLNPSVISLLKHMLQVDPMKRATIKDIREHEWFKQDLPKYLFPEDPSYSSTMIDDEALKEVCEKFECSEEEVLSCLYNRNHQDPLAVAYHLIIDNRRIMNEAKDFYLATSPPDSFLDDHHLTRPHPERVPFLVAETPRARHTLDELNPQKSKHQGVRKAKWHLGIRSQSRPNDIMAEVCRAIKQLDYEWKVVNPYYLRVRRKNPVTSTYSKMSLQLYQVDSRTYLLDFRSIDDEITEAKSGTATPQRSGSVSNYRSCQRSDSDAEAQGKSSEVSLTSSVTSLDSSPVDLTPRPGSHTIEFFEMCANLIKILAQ
Chain of human AMPK (full-length γ1, β1 and α1 subunits) (Q9Y478 whole entry): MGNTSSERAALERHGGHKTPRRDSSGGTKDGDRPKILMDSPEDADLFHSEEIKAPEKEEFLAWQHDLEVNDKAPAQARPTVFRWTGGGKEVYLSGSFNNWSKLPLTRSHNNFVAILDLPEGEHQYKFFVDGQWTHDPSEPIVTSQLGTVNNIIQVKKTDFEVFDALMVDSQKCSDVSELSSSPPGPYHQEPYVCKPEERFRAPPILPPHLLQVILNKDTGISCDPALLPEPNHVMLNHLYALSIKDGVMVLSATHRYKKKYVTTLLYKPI
Chain of human AMPK (full-length γ1, β1 and α1 subunits) (P54619 whole entry partner): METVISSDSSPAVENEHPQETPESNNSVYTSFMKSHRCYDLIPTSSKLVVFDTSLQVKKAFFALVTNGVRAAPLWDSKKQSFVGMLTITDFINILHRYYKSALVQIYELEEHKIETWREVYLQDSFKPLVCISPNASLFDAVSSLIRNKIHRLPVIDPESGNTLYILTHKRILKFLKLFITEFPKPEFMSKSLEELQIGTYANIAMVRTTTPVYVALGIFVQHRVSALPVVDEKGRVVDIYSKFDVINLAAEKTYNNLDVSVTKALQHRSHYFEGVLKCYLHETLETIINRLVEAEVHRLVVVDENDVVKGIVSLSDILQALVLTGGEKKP

| SMILES | EC50 [nM] | Emax [%] | Maximum [%] |
| --- | --- | --- | --- |
| COC(=O)N1CCC(c2ccc(-c3cc4c(C(=O)O)c[nH]c4cc3Cl)cc2)C1 (racemic) [Example 14, 6-chloro-5-{4-[1-(methoxycarbonyl)pyrrolidin-3-yl]phenyl}-1H-indole-3-carboxylic acid] | 151 | 100 | – |
| O=C(O)c1c[nH]c2cc(Cl)c(-c3ccc(O[C@@H]4CCC[C@H]4O)cc3)cc12 (racemic) [Example 38, (±)-6-chloro-5-(4-{[trans-2-hydroxycyclopentyl]oxy}phenyl)-1H-indole-3-carboxylic acid] | 106 | 93 | – |
| COC(=O)N1CCC(c2ccc(-c3cc4c(C(=O)O)c[nH]c4cc3Cl)cc2)C1 (single isomer, unassigned) [Example 14B, 6-chloro-5-{4-[1-(methoxycarbonyl)pyrrolidin-3-yl]phenyl}-1H-indole-3-carboxylic acid] | 118 | – | 91 |
| O=C(O)c1c[nH]c2cc(F)c(-c3ccc(C4CCCO4)cc3)cc12 (single isomer, unassigned) [Example 150, 6-fluoro-5-[4-(tetrahydrofuran-2-yl)phenyl]-1H-indole-3-carboxylic acid] | 165 | 112 | – |
| O=C(O)c1c[nH]c2cc(F)c(-c3ccc(C4CCCO4)cc3)c(F)c12 (single isomer, unassigned) [Example 153, 4,6-difluoro-5-[4-(tetrahydrofuran-2-yl)phenyl]-1H-indole-3-carboxylic acid] | 137 | – | – |
| O=C(O)c1c[nH]c2cc(Cl)c(-c3ccccc3)cc12 [Example 3, 6-Chloro-5-phenyl-1H-indole-3-carboxylic acid] | 459 | 82 | – |
| O=C(O)c1c[nH]c2cc(F)c(-c3ccc(CO)cc3)cc12 [Example 7, 6-fluoro-5-[4-(hydroxymethyl)phenyl]-1H-indole-3-carboxylic acid] | 671 | 78 | – |
| CC(=O)N1CC(Oc2ccc(-c3cc4c(C(=O)O)c[nH]c4cc3Cl)cc2)C1 [Example 8, 5-{4-[(1-acetylazetidin-3-yl)oxy]phenyl}-6-chloro-1H-indole-3-carboxylic acid] | 220 | 94 | – |
| O=C(O)c1c[nH]c2cc(Cl)c(-c3ccc(CC(=O)N4CCC4)cc3)cc12 [Example 11, 5-{4-[2-(azetidin-1-yl)-2-oxoethyl]phenyl}-6-chloro-1H-indole-3-carboxylic acid] | 554 | 73 | – |
| CC(=O)N1CCC(c2ccc(-c3cc4c(C(=O)O)c[nH]c4cc3Cl)cc2)C1 (stereo not drawn) [Example 15, 5-[4-(1-acetylpyrrolidin-3-yl)phenyl]-6-chloro-1H-indole-3-carboxylic acid] | 632 | 92 | – |

Stronger by EC50, values ahead:

| EC50 [nM] | Emax [%] | Maximum [%] | SMILES |
| --- | --- | --- | --- |
| 101 | 101 | – | COC(=O)N1CCC(c2ccc(-c3cc4c(C(=O)O)c[nH]c4cc3Cl)cc2)C1 (single isomer, unassigned) [Example 14A, 6-chloro-5-{4-[1-(methoxycarbonyl)pyrrolidin-3-yl]phenyl}-1H-indole-3-carboxylic acid] |
| 93.8 | 93 | – | O=C(O)c1n[nH]c2cc(Cl)c(-c3ccc(C4CCOC4)cc3)cc12 (racemic) [Example 124, (±)-6-Chloro-5-(4-(tetrahydrofuran-3-yl)phenyl)-1H-indazole-3-carboxylic acid] |
| 71.2 | 81 | – | CC(=O)N1CC(COc2ccc(-c3cc4c(C(=O)O)c[nH]c4cc3Cl)cc2)C1 [Example 9, 5-{4-[(1-acetylazetidin-3-yl)methoxy]phenyl}-6-chloro-1H-indole-3-carboxylic acid] |
| 69.9 | 91 | – | CC(=O)NCCOc1ccc(-c2cc3c(C(=O)O)c[nH]c3cc2Cl)cc1 [Example 10, 5-{4-[2-(acetylamino)ethoxy]phenyl}-6-chloro-1H-indole-3-carboxylicacid] |
| 64.7 | 88 | – | O=C(O)c1c[nH]c2cc(Cl)c(-c3ccc(CO)cc3)cc12 [Example 2, 6-Chloro-5-[4-(hydroxymethyl)phenyl]-1H-indole-3-carboxylic acid] |
| 47.8 | – | 126.9 | O=C(O)c1c[nH]c2cc(Cl)c(-c3ccc(C4CCCO4)cc3)cc12 (single isomer, unassigned) [Example 155, 6-chloro-5-[4-(tetrahydrofuran-2-yl)phenyl]-1H-indole-3-carboxylic acid] |
| 37.8 | – | 103.8 | O=C(O)c1c[nH]c2cc(F)c(-c3ccc(C4CCCO4)cc3)cc12 (single isomer, unassigned) [Example 151, 6-fluoro-5-[4-(tetrahydrofuran-2-yl)phenyl]-1H-indole-3-carboxylic acid] |
| 35.7 | 78 | – | O=C(O)c1c[nH]c2cc(Cl)c(-c3ccc(C4(O)COC4)cc3)cc12 [Example 5, 6-Chloro-5-(4-(3-hydroxyoxetan-3-yl)phenyl)-1H-indole-3-carboxylic acid] |
| 32.9 | – | 69.2 | O=C(O)c1c[nH]c2cc(F)c(-c3ccc(C4CCCCO4)cc3)cc12 (single isomer, unassigned) [Example 171, 6-fluoro-5-[4-(tetrahydro-2H-pyran-2-yl)phenyl]-1H-indole-3-carboxylic acid] |
| 28.3 | – | 104.8 | O=C(O)c1c[nH]c2cc(Cl)c(-c3ccc(C4CCCO4)cc3)cc12 (single isomer, unassigned) [Example 154, 6-chloro-5-[4-(tetrahydrofuran-2-yl)phenyl]-1H-indole-3-carboxylic acid] |
| 22.6 | 78.2 | – | COc1nc(N2CCC(OC)C2)ccc1-c1cc2c(C(=O)O)c[nH]c2cc1Cl (stereo in doubt) [Example 175, 6-chloro-5-{2-methoxy-6-[(3R)-3-methoxypyrrolidin-1-yl]pyridin-3-yl}-1H-indole-3-carboxylic acid] |
| 16.7 | – | – | O=C(O)c1c[nH]c2cc(F)c(-c3ccc(C4CCCO4)cc3)c(F)c12 (single isomer, unassigned) [Example 152, 4,6-difluoro-5-[4-(tetrahydrofuran-2-yl)phenyl]-1H-indole-3-carboxylic acid] |
| 11 | – | 101.1 | O=C(O)c1c[nH]c2cc(F)c(-c3ccc(C4CCCCO4)cc3)cc12 (single isomer, unassigned) [Example 172, 6-fluoro-5-[4-(tetrahydro-2H-pyran-2-yl)phenyl]-1H-indole-3-carboxylic acid] |
| 6.9 | 73 | – | O=C(O)c1c[nH]c2cc(Cl)c(-c3ccc(C4(O)CCC4)cc3F)cc12 [Example 13, 6-chloro-5-[2-fluoro-4-(1-hydroxycyclobutyl)phenyl]-1H-indole-3-carboxylic acid] |
| 5.6 | 62.4 | – | COc1nc(N2CCC(OC)C2)ccc1-c1cc2c(C(=O)O)c[nH]c2cc1Cl (stereo in doubt) [Example 176, 6-chloro-5-{2-methoxy-6-[(3S)-3-methoxypyrrolidin-1-yl]pyridin-3-yl}-1H-indole-3-carboxylic acid] |
